In article PMC3682108 (Journal of Infection and Chemotherapy, 2012):
Values after ≈ are worked out from the molar mass of the structure shown. Like-named read-outs stand apart in the source and are kept apart here.

What was measured:
[1] = Population pharmacokinetics of daptomycin in plasma by baseline renal function; details: 4 mg/kg once daily
[2] = system: baseline MRSA isolates; test: microbe, parasite or virus in culture; format: cell-based, Staphylococcus aureus
[3] = Safety evaluation; format: in vivo, Japanese patients; details: for Recipients with CPK levels >200 U/l: human, in vivo; for Maximum CPK level in the recipient with CPK >500 U/l: single patient per group
[4] = system: methicillin-resistant Staphylococcus aureus (MRSA); test: EAC-assessed microbiological response at test-of-cure, MITT-MRSA population; format: in vivo, Japanese patients; details: daptomycin n/N 0/2, vancomycin 0/1, at TOC
[5] = system: methicillin-resistant Staphylococcus aureus (MRSA); format: in vivo, Japanese patients; details: for Clinical success %, Wound or burn: MITT-MRSA, daptomycin 4 mg/kg qd n/N 31/38, vancomycin 1 g bid 11/13, at TOC; for Clinical response, wound or burn: daptomycin 4 mg/kg qd, wound or burn n = 38
[6] = 74 baseline MRSA isolates at screening, broth microdilution, CLSI M7-A7

Compound | Recipients with CPK levels >200 U/l [3] | Maximum CPK level in the recipient with CPK >500 U/l [3] | Microbiological success %, Other infection [4] | Clinical success %, Wound or burn [5] | MIC90 [2, 6] | MIC range [2, 6] | MIC90 ([2]; Staphylococcus aureus, MRSA) | also measured
CCCCCCCCCC(=O)N[C@@H](Cc1c[nH]c2ccccc12)C(=O)N[C@H](CC(N)=O)C(=O)N[C@@H](CC(=O)O)C(=O)N[C@@H]1C(=O)NCC(=O)N[C@@H](CCCN)C(=O)N[C@@H](CC(=O)O)C(=O)N[C@H](C)C(=O)N[C@@H](CC(=O)O)C(=O)NCC(=O)N[C@H](CO)C(=O)N[C@@H]([C@H](C)CC(=O)O)C(=O)N[C@@H](CC(=O)c2ccccc2N)C(=O)O[C@@H]1C [Daptomycin] | 9.1% | 2,545 U/l | 0.0% | 81.6% | – | – | – | Mean CL/wt lower than in patients with normal renal function (CLcr >80 ml/min) ([1]; mild renal impairment (CLcr 50–80 ml/min)): approximately 15%; Mean CL/wt lower than in patients with normal renal function (CLcr >80 ml/min) ([1]; moderate renal impairment (CLcr 30 to <50 ml/min)): approximately 15%; AUC relative to patients with normal renal function ([1]; one patient with CLcr <30 ml/min): approximately 1.4 times higher; Mean CL/wt lower than in patients with normal renal function (CLcr >80 ml/min) ([1]; severe renal impairment (CLcr <30 ml/min)): ~38%; MIC90 ([2]; baseline isolates): 0.5 µg/mL (≈ 0.309 µM); MIC range ([2]; baseline isolates): 0.25 to 1 µg/mL; Drug-related serious adverse event (kind) ([3]; one patient, just after initial dosing, resolved 4 days after discontinuation): anaphylactic shock; Clinical response, wound or burn ([5]; baseline MRSA daptomycin MIC 0.25): 87.5%; Clinical response, wound or burn ([5]; baseline MRSA daptomycin MIC 0.5): 82.4%; Clinical response, wound or burn ([5]; baseline MRSA daptomycin MIC 1): 50.0%
CN[C@H](CC(C)C)C(=O)N[C@H]1C(=O)N[C@@H](CC(N)=O)C(=O)N[C@H]2C(=O)N[C@H]3C(=O)N[C@H](C(=O)N[C@H](C(=O)O)c4cc(O)cc(O)c4-c4cc3ccc4O)[C@H](O)c3ccc(c(Cl)c3)Oc3cc2cc(c3O[C@@H]2O[C@H](CO)[C@@H](O)[C@H](O)[C@H]2O[C@H]2C[C@](C)(N)[C@H](O)[C@H](C)O2)Oc2ccc(cc2Cl)[C@H]1O [Vancomycin, vancomycin] | 9.1% | 592 U/l | 0.0% | 84.6% | 1 µg/mL (≈ 0.69 µM) | 0.5 to 2 µg/mL | – | –
NCC[C@H](O)C(=O)N[C@@H]1C[C@H](N)[C@@H](O[C@H]2O[C@H](CN)CC[C@H]2N)[C@H](O)[C@H]1O[C@H]1O[C@H](CO)[C@@H](O)[C@H](N)[C@H]1O [arbecacin] | – | – | – | – | – | 0.25 to 4 µg/mL | 2 µg/mL (≈ 3.62 µM) | –
CC(=O)NC[C@H]1CN(c2ccc(N3CCOCC3)c(F)c2)C(=O)O1 [linezolid] | – | – | – | – | – | 1 to 4 µg/mL | 2 µg/mL (≈ 5.93 µM) | –
Cc1onc(-c2ccccc2)c1C(=O)N[C@@H]1C(=O)N2[C@@H]1SC(C)(C)[C@@H]2C(=O)O [oxacillin] | – | – | – | – | – | – | > 128 µg/mL | –
teicoplanin | – | – | – | – | 4 µg/mL | 0.25 to 8 µg/mL | – | –
